Experimental findings from patent US20140187594A1, “DIPHENYL ETHER COMPOUNDS FOR THE TREATMENT OF LIVER, LUNG DISORDERS, DIABETIC COMPLICATIONS AND CARDIOVASCULAR DISEASES” (ORCHID CHEMICALS AND PHARMACEUTICALS LTD, priority 2010, published 2014) are described below.

In one assay the test system is 3T3-L1 fibroblasts. The experiment in a line: Adipogenesis in 3T3-L1 mouse fibroblast (oil red O staining). It is filed as cell-based. The settings on record: 1 μM or 10 μM, 7 days. The protocol: 3T3-L1 fibroblasts were seeded at a concentration of 10,000 cells/well in 24 well tissue culture plates in a total volume of 1 mL Dulbecco's Modified Eagle Medium (DMEM media) containing 10% fetal bovine serum, penicillin and streptomycin. […] After every two days, the media contents were replaced with fresh media and the drug. This process was carried out for 7 days. After 7 days of treatment, the cells were fixed in 10% formalin for 1 hour at […], stained with oil red 0 solution for 10 minutes and washed 6 times with 1×PBS to remove the excess stain. The plates were dried and visualized under 40× objective using Nikon E200 microscope and the pictures were taken by Nikon DXM 1200C digital camera.

The next assay concerns iNOS. The experiment in a line: iNOS inhibition in LPS challenged cells (anti iNOS antibody). It is filed as cell-based. To be noted: 30 μM, one hour preincubation, LPS 1 μg/mL for 6 hours, FIG. 38. From the text:
(§1) Based on the results obtained in the in-vitro studies, it can be concluded that Compounds A, B and C are moderately potent inhibitors of Aldose Reductase. […] At the end of the assay, cell lysates were probed with anti iNOS antibody. Compound of formula (A) inhibits the iNOS production in these cells (FIG. 38). […] Since iNOS is implicated in the pathology of diabetic complications, it is anticipated that Compound of formula (A) will have a protective effect in the development of neovascularization contributed by elevated iNOS. Inhibits LPS induced TNF-α and IL-6 Inhibition In Vivo: This study was undertaken when the mice are at 10-11 weeks in age. On Day 0 their body weights were measured and they were assigned to two groups of 6 mice each to get similar average group body weights. They were orally administered with either vehicle (deionized water, Group 1) or Compound of formula (A) (50 mg/kg; Group 2) daily between 9:30 and 10:30 AM for 10 days. The body weights were measured on day 3, 7 and 10 of the study before administration of vehicle or drug. On Day 10, the mice were administered LPS at 400 μg/kg, IP. After 1 hour they were orally administered with either vehicle or Compound of formula (A). After another 90 minutes, the mice were euthanized by carbon dioxide asphyxiation. Blood was collected by cardiac puncture and was processed to obtain serum. […]

The subject of assay [1] is TNF-α. The experiment in a line: LPS induced serum TNF-α in vivo. Set-up: species or system mice. To be noted: 50 mg/kg/day oral, 10 days, LPS 400 μg/kg IP, FIG. 39.
From the text: as §1, with “(A).” for “(A). After another 90 minutes, the mice were euthanized by carbon dioxide asphyxiation. Blood was collected by cardiac puncture and was processed to obtain serum.”
Serum TNF-α concentration for each group of mice is determined using the Quantikine. […] The optical density of each well was read at 450 nm using the Microplate Reader (FIG. 39).

The subject of a further assay is IL-6. Description: LPS induced serum IL-6 in vivo. Set-up: species or system mice. To be noted: 50 mg/kg/day oral, 10 days, LPS 400 μg/kg IP, FIG. 40.
From the text: as §1, with “(A).” for “(A). After another 90 minutes, the mice were euthanized by carbon dioxide asphyxiation. Blood was collected by cardiac puncture and was processed to obtain serum.”
Serum IL-6 concentration for each group of mice is determined using the Quantikine Mouse IL-6 Immunoassay kit. […] The optical density of each well was read at 450 nm Microplate Reader (FIG. 40).

Another assay concerns DIO mice. Description: Insulin resistance (HOMA-IR) in diet induced obese mice. It is filed as in vivo, C57BL/6 mice. To be noted: 30 mg/kg for 28 days, FIG. 22. Here is the method:
The animal model with obesity with insulin resistance was developed by feeding 60 Kcal % high fat diet, which simulates several features of human obesity and insulin resistance. These features were treated as mentioned below. […] C57BL/6 male mice aged 6-8 weeks, and body weight ranges between 16-22 g were used. Animals were divided into two groups. First group (n=10) was treated as a normal control fed chow feed (Nutri Labe Rodent, Tetragon Chemie Pvt. Ltd., Bangalore) and the second group (n=25) fed 60 Kcal % high fat diet (HFD) (Research Diets, New Brunswick, N.J., Cat# D12492 with blue dye) for 120 days. At the end of induction period the animals were selected based on insulin resistance for further study. […] During this period, body weight and feed intake was recorded daily. […]
(§2) The parameters like Glucose, ALT, AST, TC, TG (Clinical chemistry analyzer Erba XL 300), insulin (Linco®-CA, Product code: EZRMI-13K) and TNFα (GE Healthcare, Amersham, UK. Product code: RPN2718) were measured using commercially available kits. NEFA was measured in serum using commercially available NEFA C kit (Product code No: 279-75401, Wako pure chemical industries ltd., Japan).

Assay [2] concerns TNF-α. Description: LPS induced TNF-α level in NAFLD/NASH mice. It is filed as in vivo. The settings on record: 100 mg/kg orally 28 days, LPS 500 μg/animal i.p., FIG. 28.
From the text: To develop NAFLD/NASH model, the same protocol was followed as mentioned in Experiment-2. After induction, animals were further grouped as follows. Animals fed normal chow diet (n=10) served as a normal control (Group I) and animals fed HFD and HFL were further divided into two groups as disease control (Group II) (n=10) and treatment group (Group III) (n=9). Duration of the treatment was 28 days. During this period Group I and Group II animals were received water as vehicle and Group III animals were treated with compound of formula (A) 100 mg/kg orally. On 27th day, animals were kept for 12 hours fasting and on 28th day, after 60 minutes of treatment, animals were challenged with LPS (500 μg/animal) by intraperitoneal route. Then after 90 minutes of LPS challenge, blood collection was carried out, plasma and serum were separated and stored at −80° C. in deep freezer for further analysis. Following blood collection, animals were sacrificed; liver, inguinal and epididymal fats were collected and weighed.
as §2

Regarding `COC(=O)[C@@H](N)Cc1ccc(Oc2ccc(CC3SC(=O)NC3=O)cc2)cc1` (stereo partly drawn) [Compound of formula (A), Methyl(2S)-2-amino-3-(4-{4-[(2,4-dioxo-1,3-thiazolidin-5-yl)methyl]phenoxy}phenyl)propanoate], the “adipogenesis (intracellular lipids stained with oil red O)” value with 3T3-L1 fibroblasts is given as “did not induce adipogenesis”. Further, in the assay on iNOS, the iNOS production result is recorded as “potent inhibitor of iNOS with activity superior to Rosiglitazone at equal concentrations”. The “Serum TNF-α level” value in the assay on TNF-α [1] is reported as “reduction in TNF-α”. In the assay with IL-6, the “Serum IL-6 level” value is on record as “reduction”. Also, the HOMA-IR entry with DIO mice was “improvement in HOMA-IR”. The TNF-α levels entry in the assay with TNF-α [2] is “reduction”.
